These results are taken from ChEMBL document CHEMBL3286248, “Easily accessible polycyclic amines that inhibit the wild-type and amantadine-resistant mutants of the M2 channel of influenza A virus” (J Med Chem, 2014).

Structures can show the parent of a compound that is named as a salt. Calls of active or inactive are those of the source. The rule behind the calls is not given here.

In one series the test system is Influenza B virus. In words: Antiviral activity against Influenza B virus (B/HK/5/72) infected in MDCK cells. Format: functional, cell-based. Conditions: B/Hong Kong/05/1972.
The subject of a further series is MDCK. Format: cell-based, Canis lupus familiaris. To be noted: dog, 72 h.
Series [1] is described as follows: Cytotoxicity against MDCK cells assessed as alteration in cell morphology after 72 hrs. Format: cell-based, Canis lupus familiaris. Conditions: dog.
Series [2] concerns the target Matrix protein 2 (Influenza A virus (A/Udorn/307/1972(H3N2)), UniProt P0DOF8). Type of series: cell membranes, Influenza A virus (A/udorn/1972(H3N2)).
Series [3] addresses Matrix protein 2 (Influenza A virus (A/Udorn/307/1972(H3N2))) (UniProt P0DOF8). Type of series: cell membranes. Conditions: Influenza A virus (A/udorn/1972(H3N2)).

Sequence of Matrix protein 2 (Influenza A virus (A/Udorn/307/1972(H3N2)), UniProt P0DOF8) (P0DOF8 whole entry): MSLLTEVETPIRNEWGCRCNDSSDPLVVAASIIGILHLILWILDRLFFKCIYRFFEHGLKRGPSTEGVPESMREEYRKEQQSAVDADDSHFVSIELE
Sequence of Matrix protein 2 (Influenza A virus (A/Udorn/307/1972(H3N2))) (P0DOF8 whole entry): as above

As for `N=C(N)N1CC2C3CCC(C4CC34)C2C1` (stereo not given), in the series on Influenza B virus, the outcome was inactive. In the series with MDCK, this compound yielded a 50% cytotoxic concentration (CC50) of 41 µM. For the same compound, the MCC at 72 h in series [1] turned out to be 100 µM. In addition, the IC50 in series [2] was determined as 1640 nM.

Regarding `CC12CC34CNCC35CC1(C)C(C)(C5)C2(C)C4` (stereo not given), the result with Influenza B virus was inactive. The same compound displayed a CC50 with MDCK of 49 µM. In addition, in series [1], the MCC at 72 h came out at 100 µM.

Take `C1CC2C3CNCC3C1C1CC21` (stereo not given): the outcome in the series on Influenza B virus was inactive. Moreover, the cytotoxic concentration (CC50) with MDCK came to 49 µM. Moreover, the MCC at 72 h in series [1] came to 100 µM. The compound further gave an IC50 in series [2] of 3380 nM.

In the case of `C1=CC2C3CC3C1C1CN(C3CCNCC3)CC21` (stereo not given), the outcome with Influenza B virus was inactive. Besides, half-maximal cytotoxicity with MDCK (CC50) was put at 46 µM. Besides, the MCC at 72 h in series [1] worked out at 100 µM. Besides, the inhibition result in series [3] was “inactive”.

As to `N=C(N)N1CC2C3C=CC(C4CC34)C2C1` (stereo not given), the result in the series with Influenza B virus was inactive. Further, the CC50 in the series with MDCK is 39 µM. For the same compound, in series [1], the MCC at 72 h is 100 µM. Besides, in series [2], the IC50 worked out at 1500 nM.

`N=C(N)N1CC2C3C=CC(C4C=CC43)C2C1` (stereo not given): the result with Influenza B virus was inactive. The CC50 in the series with MDCK came to 9.4 µM. Moreover, the MCC at 72 h in series [1] was found to be 20 µM. In series [2], this compound displayed an IC50 of 4930 nM.

For the compound `CC12CC34CN(C(=N)N)CC35CC1(C)C(C)(C5)C2(C)C4` (stereo not given), the result with Influenza B virus was inactive. Further, the midpoint of cytotoxicity in the series with MDCK, the CC50, lay at 15 µM. Moreover, in series [1], the MCC at 72 h is at least 4 µM.

For `NC12CC3CC(CC(C3)C1)C2` [AMANTADINE], in the series with Influenza B virus, the outcome was inactive. In the series with MDCK, this compound registered a CC50 above 500 µM. Besides, in series [1], the MCC at 72 h is at least 500 µM.

Consider `N=C(N)N1CC2C3CCC(C4CCC43)C2C1` (stereo not given), for which, in the series with Influenza B virus, the outcome was inactive. Also, in the series on MDCK, half-maximal cytotoxicity (CC50) was put at 1.9 µM. Further, the MCC at 72 h in series [1] was determined as 4 µM.

Turning to `CC(N)C12CC3CC(CC(C3)C1)C2` (stereo not given) [RIMANTADINE HYDROCHLORIDE], in the series with Influenza B virus, the result was inactive. Moreover, in the series with MDCK, the CC50 was 230 µM.

`C1=CC2C3CNCC3C1C1CC21` (stereo not given): in the series with Influenza B virus, the outcome was inactive. The same compound displayed a CC50 in the series with MDCK of 54 µM. Also, the MCC at 72 h in series [1] was 100 µM. It took 2920 nM to reach half-maximal inhibition in series [2] (IC50).

With `C1=CC2C1C1C=CC2C2CNCC12` (stereo not given), the result with Influenza B virus was inactive. In the series with MDCK, this compound yielded a CC50 of 4.9 µM. Moreover, the MCC at 72 h in series [1] worked out at 15 µM. In series [2], this compound displayed an IC50 of 5540 nM.

For the compound `C1CC2C1C1CCC2C2CNCC12` (stereo not given), the outcome in the series on Influenza B virus was inactive. In the series with MDCK, it took 1.9 µM to reach half-maximal cytotoxicity (CC50). Also, the MCC at 72 h in series [1] was found to be 4 µM. Also, the IC50 in series [2] is 1240 nM.

As to `C1CC(N2CC3C4CCC(C5CC45)C3C2)CCN1` (stereo not given), the result in the series with Influenza B virus was inactive. In addition, the CC50 in the series on MDCK worked out at 9 µM. The MCC at 72 h in series [1] was 20 µM. Moreover, the inhibition result in series [3] is “inactive”.

Broadly, the CC50 is the concentration that lowers cell viability or growth by half. What is called IC50 is the concentration that inhibits the measured activity by half. The low end stands for higher potency, the high end for lower potency.
